The values below come from article PMC9414862, “In Vitro and In Silico Potential Inhibitory Effects of New Biflavonoids from Ochna rhizomatosa on HIV-1 Integrase and Plasmodium falciparum” (Pharmaceutics, 2022).

A word on the IC50: it is the concentration at which inhibition is half-maximal.

Assay [1] addresses T1, HIV-1 integrase (purified recombinant HIV-1 subtype C IN) (Human immunodeficiency virus type 1 group M subtype C, UniProt Q75002).
T1 construct: Recombinant HIV-1 subtype CIN was assembled on to the pre-processed donor DNA
The assay can be described thus: HIV-1 Integrase strand transfer inhibition assay. It counts as biochemical. As for the experimental part: The HIV-1 Integrase strand transfer inhibition assay was adapted from previously described methods. […] Following incubation at room temperature for 40 min and a stringent wash step, 5 µg/mL purified recombinant HIV-1 subtype CIN in integrase buffer 1 ([…] to ethanol, 50 µg/mL BSA, pH 7.5) was added to individual wells. […] Recombinant HIV-1 subtype CIN was assembled on to the pre-processed donor DNA through incubation for 45 min at room temperature. Strand transfer reaction was initiated through the addition of 10 µM (final concentration) double-stranded FITC-labelled target DNA (5′-[…]/36-FAM/-3′) annealed to (5′-[…]-/36-FAM/-3′) in integrase buffer 2 (same as buffer 1, except 25 µM MnCl2 was replaced with 2.5 µM MgCl2). After an incubation period of 60 min at 37 °C, the plates were washed using PBS containing 0.05% Tween 20 and 0.01% BSA, followed by the addition of peroxidase-conjugated sheep anti-FITC antibody (Thermo Scientific, Waltham, MA, USA) diluted 1:1000 in the same PBS buffer. Finally, the plates were washed and peroxidase substrate (Sure Blue Reserve™, KPL, Gaithersburg, MD, USA) was added to allow for detection at 620 nm using a Synergy MX (BioTek®) plate reader. Absorbance values were converted to % enzyme activity relative to the readings obtained from the control wells (enzyme without inhibitor).

The subject of assay [2] is Plasmodium falciparum strain NF54 (chloroquine-sensitive), erythrocytic stages. The assay can be described thus: Antiplasmodial 3H-hypoxanthine incorporation assay. As to conditions: for IC50: Plasmodium falciparum. It counts as cell-based. As for the experimental part: The assessment of antiplasmodial activity in vitro was evaluated against the erythrocytic stages of chloroquine-sensitive Plasmodium falciparum strain NF54 using a ^3H-hypoxanthine incorporation assay previously described, of which the […] NF54 strain originated from South Africa, and the standard drug chloroquine was obtained from Sigma-Aldrich (St. Louis, MO, USA). Compounds were dissolved in DMSO at 10 μg/mL and added to parasite cultures incubated in RPMI 1640 medium without hypoxanthine, supplemented with HEPES (5.94 g/L), NaHCO3 (2.1 g/L), neomycin (100 U/mL), Albumax, and washed human red cells A^+ at 2.5% hematocrit (0.3% parasitemia). Serial sample dilutions of […] dilution steps covering a range from 100 to 0.002 μg/mL were prepared. The 96-well plates were incubated in a humidified atmosphere at 37 °C; 4% CO2; 3% O2 and 93% N2. After 48 h, 50 μL of ^3H-hypoxanthine (0.5 μCi) was added to each well.

[3] abbreviates: mean ± SD; '-' in Table 2 = no inhibition detected.
The mark [4] stands for this setting: mean ± SD; '-' in Table 2 = no inhibition detected; read-out: Assembly IC50 (anti-HIV-1 integrase activity).
Where [5] appears, read: chloroquine-sensitive P. falciparum NF54, mean ± SD, '-' in Table 3 = no activity, read-out: NF54: IC50 (antiplasmodial activity).
[6] abbreviates: chloroquine-sensitive P. falciparum NF54, mean ± SD, '-' in Table 3 = no activity.

Read-outs that look alike come from different tables or passages of the source.

T1 sequence (Q75002 1152-1439): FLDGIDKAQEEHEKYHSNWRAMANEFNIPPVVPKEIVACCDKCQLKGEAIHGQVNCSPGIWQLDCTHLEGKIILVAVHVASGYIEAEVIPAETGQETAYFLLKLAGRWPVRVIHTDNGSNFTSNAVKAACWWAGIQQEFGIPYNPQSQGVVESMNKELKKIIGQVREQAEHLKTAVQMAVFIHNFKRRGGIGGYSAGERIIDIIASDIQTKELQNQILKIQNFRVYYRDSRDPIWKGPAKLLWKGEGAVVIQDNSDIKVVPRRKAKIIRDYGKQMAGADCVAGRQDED

In the case of `COc1ccc(C(c2ccc(O)cc2)[C@@H](C(=O)c2ccc(OC)cc2O)c2coc3cc(OC)ccc3c2=O)cc1` (some centres unmarked) [Compound 5, shweinfurthianone B], the “Assembly IC50 (anti-HIV-1 integrase activity)” value (“Assembly IC50” for short) in assay [1] (setting [3]) was “no inhibition detected”. For the same compound, the IC50 in assay [1] (setting [4]) was greater than 20 µM; in assay [2] (setting [5]) it was 5.11 ± 13.7 µM.

Turning to `CCN(CC)CCCC(C)Nc1ccnc2cc(Cl)ccc12` (centres unmarked) [Chloroquine, reference compound], the IC50 in assay [2] (NF54, read-out: NF54: IC50 (antiplasmodial activity)) was 0.006 ± 0.002 µM.

`O=C(/C=C/c1ccc(O)cc1)c1c(O)cc(O)c2c(C(=O)c3ccc(O)cc3O)c(-c3ccc(O)cc3)oc12` [Compound 6, calodenine B]: the “Assembly IC50” value in assay [1] (setting [3]) is “no inhibition detected”. In addition, the IC50 was greater than 20 µM in assay [1] (setting [4]) and greater than 190 µM in assay [2] (setting [5]). Moreover, the “NF54: IC50 (antiplasmodial activity)” value in assay [2] (setting [6]) was “no activity”.

`C[C@H]1[C@H](OC(=O)CCC(=O)O)O[C@@H]2O[C@@]3(C)CC[C@H]4[C@H](C)CC[C@@H]1[C@@]24OO3` [Artesumate, reference compound]: in assay [2] (setting [5]), the IC50 is 0.002 µM.

With `COc1ccc(C(c2ccc(OC)cc2)[C@@H](C(=O)c2ccc(OC)cc2O)c2coc3cc(OC)ccc3c2=O)cc1` [Compound 2, (R)-3-(1-(2′-hydroxy-4′-methoxyphenyl)-3,3-bis(4″,4‴-dimethoxyphenyl)-1-oxopropan-2-yl)-4-methoxychromenone], the values for the concentration for half-maximal inhibition (IC50) in assay [1] (setting [4]) and in assay [2] (setting [5]) were greater than 20 µM and 4.6 ± 6.09 µM, respectively.

`O=C(c1ccc(O)cc1O)[C@@H](c1coc2cc(O)ccc2c1=O)C(c1ccc(O)cc1)c1ccc(O)cc1` [Compound 1]: the IC50 in assay [1] (read-out: Assembly IC50 (anti-HIV-1 integrase activity)) was 0.047 ± 0.021 µM; in assay [2] (setting [5]) it was greater than 190 µM. In assay [2] (setting [6]), the “NF54: IC50 (antiplasmodial activity)” value is reported as “no activity”.

With `COc1cc(-c2coc3cc(O)cc(OC)c3c2=O)ccc1O` [Compound 7, 4′,7-dihydroxy-3′,5-dimethoxyisoflavone], the half-inhibitory concentration (IC50) in assay [1] (setting [4]) was greater than 20 µM; in assay [2] (setting [5]) it was greater than 190 µM. Further, the “NF54: IC50 (antiplasmodial activity)” value in assay [2] (setting [6]) is listed as “no activity”.

Take `COc1ccc(C(c2ccc(O)cc2)[C@@H](C(=O)c2ccc(O)cc2O)c2coc3cc(OC)ccc3c2=O)cc1` (stereo partly drawn) [Compound 3, (R)-3-(1-(2′,4′-dihydroxyphenyl)-3,3-bis(4″-hydroxy-4‴-methoxyphenyl)-1-oxopropan-2-yl)-4 methoxychromenone]: the “Assembly IC50” value in assay [1] (setting [3]) is reported as “no inhibition detected”. The values for the IC50 in assay [1] (read-out: Assembly IC50 (anti-HIV-1 integrase activity); mean ± SD; '-' in Table 2 = no inhibition detected) and in assay [2] (setting [5]) were greater than 20 µM and 7.86 ± 5.12 µM, respectively.

With `COc1ccc(C(c2ccc(O)cc2)[C@@H](C(=O)c2ccc(O)cc2O)c2coc3cc(O)ccc3c2=O)cc1` (some centres unmarked) [Compound 4, schweinfurthianone A], in assay [1] (setting [3]), the “Assembly IC50” value is listed as “no inhibition detected”. Besides, the half-maximal inhibitory concentration (IC50) in assay [1] (setting [4]) was greater than 20 µM; in assay [2] (setting [5]) it was 8.2 ± 0.93 µM.
